Where a name gives a salt, the structure may show the parent alone.
Assays:
[1] = both, rat, in vivo, iv, 4 weeks
Description: A repeated-dose, 4-week toxicity study was conducted in male and female rats, where single, daily IV bolus doses up to 60 mg/kg were given. […] A 28-day toxicity study was also conducted in male and female marmosets, where iclaprim mesylate was infused intravenously over a 20-minute interval.

S. aureus strain AH1252 = experiment: Neutropenic rat lung infection model; format: in vivo; details: iclaprim 80 mg/kg
Description: S. aureus strain AH1252, a thymidine knockout of the MRSA wild type AW6 strain, was utilized for this study. The bacterial strain was diluted in a 2% alginate buffer, which was added dropwise in a ratio of 1:5 into […] to form alginate beads. The alginate beads reduce the efficacy of bacterial clearance similar to that seen in the cystic fibrosis population. A 5.25×10^4 bacterial inoculum was administered to groups of 9 rats, intratracheally, with prepared alginate bacteria suspensions, under isoflurane anesthesia. […] Twelve hours after the last treatment, rats were euthanized and lungs collected for CFU determination.

[2] = tested on: nosocomial pneumonia suspected or confirmed to be caused by Gram-positive pathogens; details: intent-to-treat, test of cure visit; vancomycin 1 g IV q12h; cited from earlier work
[3] = SC/BID 3 days, vancomycin 50 mg/kg

Structure (SMILES)	dosages with histopathological changes at the injection sites [1]	72 hour lungs (CFU/gram of lung) log10CFU/Lung (S. aureus strain AH1252; [3])	Change in CFUs from 2 hr. (S. aureus strain AH1252; [3])	Survival >60 hrs (S. aureus strain AH1252; SC/BID 3 days, vancomycin 50 mg/kg, 9 rats)	survival compared to the infection controls (S. aureus strain AH1252; vancomycin 50 mg/kg SC/BID)	Change in CFUs from 72 hr. (S. aureus strain AH1252; vs 72 hr infection controls, vancomycin 50 mg/kg SC/BID)	cure rate [2]
COc1cc(Cc2cnc(N)nc2N)c2c(c1OC)OC(C1CC1)C=C2 (racemic) [iclaprim mesylate, 5-[(2RS)-2-cyclopropyl-7,8-dimethoxy-2Hchromen-5-ylmethyl] pyrimidine-2,4-diamine methanesulfonate]	≥ 10 mg/kg/day						
CN[C@H](CC(C)C)C(=O)N[C@H]1C(=O)N[C@@H](CC(N)=O)C(=O)N[C@H]2C(=O)N[C@H]3C(=O)N[C@H](C(=O)N[C@H](C(=O)O)c4cc(O)cc(O)c4-c4cc3ccc4O)[C@H](O)c3ccc(c(Cl)c3)Oc3cc2cc(c3O[C@@H]2O[C@H](CO)[C@@H](O)[C@H](O)[C@H]2O[C@H]2C[C@](C)(N)[C@H](O)[C@H](C)O2)Oc2ccc(cc2Cl)[C@H]1O [Vancomycin]		5.30 log10CFU/Lung	2.18 log 10 CFU	8/9	increased survival	−3.38 log 10 CFU	52.2%
